Data taken from PubChem BioAssay (NCI).
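Grown in 96-well plates, cells were treated for 48 hours with each compound at five concentrations. Insufficient inhibition: endpoint recorded as highest concentration tested. Abbreviation: GI50, concentration required for 50% inhibition of growth. Definition used: TGI = concentration required for complete inhibition of growth.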

Assays:
Assay in all cases: NCI tumour cell line growth inhibition, 48 h
786-0 renal = system: 786-0 renal
A498 renal = system: A498 renal
A549 NSCLC = system: A549 NSCLC
ACHN renal = system: ACHN renal
BT-549 breast = system: BT-549 breast
CAKI-1 renal = system: CAKI-1 renal
CCRF-CEM leukemia = system: CCRF-CEM leukemia
COLO 205 colon = system: COLO 205 colon
DU-145 prostate = system: DU-145 prostate
EKVX NSCLC = system: EKVX NSCLC
HCC-2998 colon = system: HCC-2998 colon
HCT-116 colon = system: HCT-116 colon
HCT-15 colon = system: HCT-15 colon
HL-60(TB) leukemia = system: HL-60(TB) leukemia
HOP-62 NSCLC = system: HOP-62 NSCLC
HOP-92 NSCLC = system: HOP-92 NSCLC
HS 578T breast = system: HS 578T breast
HT29 colon = system: HT29 colon
IGROV1 ovarian = system: IGROV1 ovarian
K-562 leukemia = system: K-562 leukemia
KM12 colon = system: KM12 colon
LOX IMVI melanoma = system: LOX IMVI melanoma
M14 melanoma = system: M14 melanoma
MALME-3M melanoma = system: MALME-3M melanoma
MCF7 breast = system: MCF7 breast
MDA-MB-231 breast = system: MDA-MB-231 breast
MDA-MB-435 = system: MDA-MB-435
MOLT-4 leukemia = system: MOLT-4 leukemia
NCI-H226 lung = system: NCI-H226 lung
NCI-H23 lung = system: NCI-H23 lung
NCI-H460 lung = system: NCI-H460 lung
NCI-H522 lung = system: NCI-H522 lung
NCI/ADR-RES ovarian = system: NCI/ADR-RES ovarian
OVCAR-3 ovarian = system: OVCAR-3 ovarian
OVCAR-4 ovarian = system: OVCAR-4 ovarian
OVCAR-5 ovarian = system: OVCAR-5 ovarian
OVCAR-8 ovarian = system: OVCAR-8 ovarian
PC-3 prostate = system: PC-3 prostate
RPMI-8226 leukemia = system: RPMI-8226 leukemia
RXF 393 renal = system: RXF 393 renal
SF-268 CNS = system: SF-268 CNS
SF-295 CNS = system: SF-295 CNS
SF-539 CNS = system: SF-539 CNS
SK-MEL-2 melanoma = system: SK-MEL-2 melanoma
SK-MEL-28 melanoma = system: SK-MEL-28 melanoma
SK-MEL-5 melanoma = system: SK-MEL-5 melanoma
SK-OV-3 ovarian = system: SK-OV-3 ovarian
SN12C renal = system: SN12C renal
SNB-19 CNS = system: SNB-19 CNS
SNB-75 CNS = system: SNB-75 CNS
SR leukemia = system: SR leukemia
SW-620 colon = system: SW-620 colon
T-47D breast = system: T-47D breast
TK-10 renal = system: TK-10 renal
U251 CNS = system: U251 CNS
UACC-257 melanoma = system: UACC-257 melanoma
UACC-62 melanoma = system: UACC-62 melanoma
UO-31 renal = system: UO-31 renal

## NC1CCC(Nc2nc(NCc3ccc(-c4cccs4)nc3)c3ncn(C4CCCC4)c3n2)CC1 (stereo unspecified)
786-0 renal
  GI50: 122 nM
  TGI: 1120 nM
A498 renal
  GI50: 72.5 nM
  TGI: 225 nM
A549 NSCLC
  GI50: 23.7 nM
  TGI: 2040 nM
ACHN renal
  GI50: 276 nM
  TGI: 1010 nM
BT-549 breast
  GI50: 131 nM
  TGI: 626 nM
CAKI-1 renal
  GI50: 1620 nM
  TGI: 9920 nM
CCRF-CEM leukemia
  GI50: 32.9 nM
  TGI: 554 nM
COLO 205 colon
  GI50: 16.9 nM
  TGI: 35 nM
DU-145 prostate
  GI50: 93.3 nM
  TGI: 4420 nM
EKVX NSCLC
  GI50: 42.6 nM
  TGI: 762 nM
HCC-2998 colon
  GI50: 30.7 nM
  TGI: 490 nM
HCT-116 colon
  GI50: 33.2 nM
  TGI: 1150 nM
HCT-15 colon
  GI50: 342 nM
  TGI: 5360 nM
HL-60(TB) leukemia
  GI50: 20.6 nM
  TGI: 64.4 nM
HOP-62 NSCLC
  GI50: 27.6 nM
  TGI: 98.7 nM
HOP-92 NSCLC
  GI50: 30 nM
  TGI: 134 nM
HS 578T breast
  GI50: 26.9 nM
  TGI: 2280 nM
HT29 colon
  GI50: < 14.3 nM
  TGI: 315 nM
IGROV1 ovarian
  GI50: 36.3 nM
  TGI: 1930 nM
K-562 leukemia
  GI50: 39.7 nM
  TGI: 777 nM
KM12 colon
  GI50: 28.5 nM
  TGI: 743 nM
LOX IMVI melanoma
  GI50: 296 nM
  TGI: 3480 nM
M14 melanoma
  GI50: 25.8 nM
  TGI: 337 nM
MALME-3M melanoma
  GI50: 122 nM
  TGI: 523 nM
MCF7 breast
  GI50: 30.1 nM
  TGI: 1140 nM
MDA-MB-231 breast
  GI50: 24 nM
  TGI: 1590 nM
MDA-MB-435
  GI50: 28.2 nM
  TGI: 1080 nM
MOLT-4 leukemia
  GI50: 25 nM
  TGI: 502 nM
NCI-H226 lung
  GI50: 131 nM
  TGI: 1310 nM
NCI-H23 lung
  GI50: 38.3 nM
  TGI: 319 nM
NCI-H460 lung
  GI50: 91.3 nM
  TGI: 2190 nM
NCI-H522 lung
  GI50: < 16 nM
  TGI: 49 nM
NCI/ADR-RES ovarian
  GI50: 244 nM
  TGI: 4290 nM
OVCAR-3 ovarian
  GI50: 49.2 nM
  TGI: 731 nM
OVCAR-4 ovarian
  GI50: 32.6 nM
  TGI: 1060 nM
OVCAR-5 ovarian
  GI50: 30.2 nM
  TGI: 2580 nM
OVCAR-8 ovarian
  GI50: 50.4 nM
  TGI: 12900 nM
PC-3 prostate
  GI50: 33.7 nM
  TGI: 1040 nM
RPMI-8226 leukemia
  GI50: 22.7 nM
  TGI: 137 nM
RXF 393 renal
  GI50: 14.8 nM
  TGI: 37.8 nM
SF-268 CNS
  GI50: 18.8 nM
  TGI: 1080 nM
SF-295 CNS
  GI50: 81.9 nM
  TGI: 699 nM
SF-539 CNS
  GI50: 157 nM
  TGI: 395 nM
SK-MEL-2 melanoma
  GI50: 90.8 nM
  TGI: 288 nM
SK-MEL-28 melanoma
  GI50: 29.6 nM
  TGI: 117 nM
SK-MEL-5 melanoma
  GI50: 280 nM
  TGI: 1280 nM
SK-OV-3 ovarian
  GI50: 126 nM
  TGI: 4280 nM
SN12C renal
  GI50: 34.1 nM
  TGI: 1810 nM
SNB-19 CNS
  GI50: 30.2 nM
  TGI: 3750 nM
SNB-75 CNS
  GI50: 16 nM
  TGI: 58.8 nM
SR leukemia
  GI50: 32.8 nM
  TGI: 582 nM
SW-620 colon
  GI50: < 15.2 nM
  TGI: 2030 nM
T-47D breast
  GI50: 33 nM
  TGI: 699 nM
TK-10 renal
  GI50: 166 nM
  TGI: 2690 nM
U251 CNS
  GI50: 32.7 nM
  TGI: 434 nM
UACC-257 melanoma
  GI50: 56.8 nM
  TGI: 295 nM
UACC-62 melanoma
  GI50: 87 nM
  TGI: 365 nM
UO-31 renal
  GI50: 203 nM
  TGI: 661 nM
